Laboratory results reported in patent publication US20230210845A1, “DOSING METHODS FOR TREATMENT OF CARDIOVASCULAR CONDITIONS” (IMBRIA PHARMACEUTICALS, INC., priority 2020, published 2023).
Read-outs that look alike come from different tables or passages of the source.

Legend:
clinical [1] = experiment: clinical
Experimental: Subjects with R2 below 0.80 or %AUCextra>20% were not excluded from the dose-proportionality evaluation based on AUC0-inf. A point estimate and 95% CI were produced for the slope. […] Since there were only 2 dose levels in the MAD part, no dose-proportionality analysis was performed for the MAD part.

clinical [2] = experiment: clinical; design: species or system human (healthy subjects); conditions: human, in vivo, po, 35 mg
Experimental: (§1) Each subject participated in only 1 group during the study.
(§2) The blood samples were taken via an indwelling intravenous catheter or by direct venipuncture. The exact times of blood sampling were recorded in the eCRF.

[3] = SAD part (and integrated FE arm): safety and tolerability (TEAEs)
Experimental: as §1
(§3) AEs were recorded from (first) admission until completion of the follow-up visit. Any clinically significant observations in results of clinical laboratory, 12-lead ECGs, vital signs, or physical examinations were recorded as AEs.
(§4) A treatment-emergent AE (TEAE) was defined as any event not present prior to (the first) administration of the study drug or any event already present that worsened in either severity or frequency following exposure to the study drug.
(§5) At several time points before and after drug administration, subjects were asked nonleading questions to determine the occurrence of AEs. Subjects were asked in general terms about any AEs at regular intervals during the study. In addition, all AEs reported spontaneously during the course of the study were recorded. Details included description of the event, date and time of onset, date and time of end, total duration, severity, relationship to study drug, intervention, seriousness, and outcome. All answers were interpreted by the Investigator and were recorded in the eCRF. All AEs were classified according to the Medical Dictionary for Regulatory Activities (MedDRA; Version 22.0) for AEs.
(§6) The severity of the AEs was rated as mild, moderate, or severe; the relationship between the AEs and the study drug was indicated as none, unlikely, possibly, likely, or definitely. Adverse events assessed as possibly, likely, or definitely were considered related to the study drug; AEs assessed as none or unlikely were considered not related to the study drug.

clinical [4] = format: in vivo, human (healthy subjects); conditions: plasma; for Tmax: human, oral, 150 mg, read-out: median tmax
Experimental: Subjects from Group A4 of the SAD part were assigned to the integrated FE arm. After administration of the drug to fasting subjects in the SAD part, the FE arm used the same subjects and experimental procedures.
Before dosing, subjects fasted overnight for at least 10 hours following a snack on the evening before. Then, subjects received an FDA-defined high-fat breakfast that had to be consumed within 20 minutes. The entire breakfast had to be consumed by the subjects. Dosing occurred at 30 minutes after the start of breakfast. Following dosing, subjects fasted for 4 hours until lunch. During fasting, fluids other than water were not allowed.

[5] = SAD part: PK in urine (urinary excretion, renal clearance); format: in vivo, human (healthy subjects); conditions: for CL renal: human, urine, read-out: geometric mean renal clearance (CLR) (converted)
Experimental: Urine collection for PK was only conducted in the SAD part, but not in the second period of the FE group A4.
The subjects were instructed to empty their bladders completely before study drug administration and at the end of each collection interval. A blank urine sample was collected within 12 hours prior to study drug administration. The exact times of urine collection and the urine weight of the entire interval (before and after addition of any urine stabilizers, if used) were recorded in the eCRF.

[6] = Experimental: Subjects received multiple oral doses of an IR formulation of IMB-1018972 or placebo once every 12 hours (q12h) for 14 consecutive days.
The doses were selected based upon the safety, tolerability, and PK data from the SAD part: • Group B1 multiple oral doses of an IR formulation of 150 mg IMB-1018972 (n=9) or matching placebo (n=3) twice daily (q12h) for 14 days; on Day 14 only a single morning dose was administered • Group B2: multiple oral doses of an IR formulation of 50 mg IMB-1018972 (n=9) or matching placebo (n=3) q12h for 14 days; on Day 14 only a single morning dose was administered
Before each morning dose, subjects fasted overnight for at least 10 hours following a snack on the evening before. On Days 1 and 14, subjects received a standardized breakfast that had to be consumed within 20 minutes. Dosing occurred at 30 minutes after the start of breakfast. Following dosing, subjects fasted for 4 hours until lunch. During fasting, fluids other than water were not allowed. On Days 2 to 13, breakfast was not standardized and was given within maximally 1 hour before dosing and consumed before dosing. No fasting after dosing was applicable on these days.

[7] = 28-day dog toxicology study (NOAEL and exposure); format: in vivo; conditions: for AUC0-8×2: Day 26, IMB-1018972 200 mg/kg/day
Experimental: Based on the nonclinical toxicology data, it was considered that subjects in this clinical study were not at unreasonable risk of adverse effects. […] For a 60-kg individual, the NOAEL dose would be 6480 mg. With a 10-fold safety factor applied, this would allow for a maximum recommended starting dose (MRSD) of 648 mg/day.7,8 The planned starting dose in the current Phase 1 study was 50 mg, equivalent to 0.83 mg/kg/day for a 60-kg subject. This starting dose is less than 10% of the MRSD determined from the dog NOAEL and less than 1% of the dog NOAEL.
The relevant animal study was the 28-day dog study where the NOAEL for IMB-1018972 was 200 mg/kg/day.

[8] = MAD part: safety and tolerability (TEAEs); format: in vivo, human (healthy subjects)
Experimental: as §3, §4, §5, §6

[9] = FIH study overall safety (deaths, clinical laboratory, vital signs, ECG, telemetry, physical examination)
Experimental: AEs were recorded from (first) admission until completion of the follow-up visit. Any clinically significant observations in results of clinical laboratory, 12-lead ECGs, vital signs, or physical examinations were recorded as AEs. […]
Systolic and diastolic blood pressure and pulse were recorded after the subject had been resting for at least 5 minutes in the supine position. […] Body temperature and respiratory rate were measured subsequently.
The ECG was recorded using an ECG machine equipped with computer-based interval measurements (with no/minimal disturbance by procedures). The following ECG parameters were recorded: heart rate, PR-interval, QRS-duration, QT-interval, QTcF-interval, and the interpretation of the ECG profile by the Investigator.
Physical examination was performed according to PRA SOPs. In addition, body weight and height were measured according to PRA SOPs.

[10] = FIH study: plasma PK, single and multiple dose results combined; format: in vivo, human (healthy subjects); conditions: all blood samples of subjects that received IMB-1018972
Experimental: This was a double-blind, randomized, placebo-controlled study, consisting of a single ascending dose (SAD) part with integrated food effect (FE) arm, a multiple ascending dose (MAD) part, to assess the safety, tolerability, and PK of ascending single and multiple oral doses of IMB-1018972 (immediate-release [IR] formulation in the SAD and MAD parts).
as §2

[11] = single oral dose 35 mg trimetazidine, all 4 TEAEs
[12] = 150 mg IMB-1018972, fasted (FE group)
[13] = 150 mg IMB-1018972, fed (FDA high-fat breakfast)

For COc1ccc(CN2CCNCC2)c(OC)c1OC [trimetazidine], which Tmax (clinical [1]; human, in vivo) is on record?
The Tmax was 1.5 to 2 h.

And the “time postdose at which detectable concentrations generally seen” value (clinical [1]; human, in vivo)?
The value was 15 to 30 min.

And the Tmax (clinical [1]; human, in vivo, po, 50 mg)?
The Tmax was 1 to 2 h.

And the half-life (clinical [1]; human, plasma, oral)?
The half-life was 6.76 to 8 h.

What about the AUC(0-inf) (clinical [2]) of the same molecule?
Its AUC(0-inf) is 929 ng·h/mL.

What about the AUC(0-t) (clinical [2]) of the same molecule?
The AUC(0-t) was 912 ng·h/mL.

And the Cmax (clinical [2])?
The Cmax was 68.6 ng/mL.

And the half-life (clinical [2])?
The half-life was 7.49 h.

And the “total number of TEAEs” value ([3]; single oral dose 35 mg trimetazidine)?
The value was 4.

What about the “relationship of TEAEs to study drug” value [3, 11] of the same molecule?
The value was “not to be related to the study drug”.

And the “severity of TEAEs” value [3, 11]?
The value was “mild severity”.

And the Tmax (clinical [4]; [12])?
The Tmax was 1.5 h.

What about the Tmax (clinical [4]; [13]) of the same molecule?
Its Tmax is 4 h.

And the CL renal ([5]; oral, range over single doses 50 mg to 400 mg IMB-1018972)?
The CL renal was 302 to 347 mL/min.

And the CL renal ([5]; po, 35 mg)?
The CL renal was 340 mL/min.

And the “arithmetic mean percent of the dose excreted in urine” value ([5]; within 48 hours after single oral dose of 35 mg trimetazidine)?
The value was 54.47%.

With COc1ccc(CN2CCN(CCO)CC2)c(OC)c1OC [IMB-1028814] as the molecule, how does the “dose proportionality for Cmax, AUC0-t, AUC0-inf (95% CIs of slopes included 1)” value (clinical [1]; IMB-1018972 single-dose range 50 to 400 mg, fasted) read?
The value was “no evidence of a deviation from dose proportionality”.

And the median tmax (clinical [1]; plasma, single-dose range 50 mg to 400 mg IMB-1018972 IR, fasted)?
Its median tmax is “around 1 hours”.

And the “state of concentrations at Day 14 dose (trough concentrations, visual inspection)” value ([6]; 150 mg fed and 50 mg fed q12h)?
The value was “steady-state conditions”.

What about the “geometric mean Cmax higher on Day 1 in MAD part than after single dose in SAD part” value ([6]; 150 mg fed in both parts) of the same molecule?
Its value is 97%.

What about the “geometric mean t1/2” value ([6]; Day 14 after 50 mg q12h fed) of the same molecule?
Its value is 2.79 h.

What about the “geometric mean t1/2” value ([6]; Day 14 after 150 mg q12h fed) of the same molecule?
The value was 4.48 h.

And the median tmax (clinical [4]; [12])?
The median tmax was 1 h.

And the median tmax (clinical [4]; [13])?
Its median tmax is 2 h.

And the “AUC0-8×2” value ([7]; female dogs)?
Its value is 652,849 ng.h/mL.

What about the “AUC0-8×2” value ([7]; male dogs) of the same molecule?
The value was 417,733 ng.h/mL.

With COc1ccc(CN2CCN(CCOC(=O)c3cccnc3)CC2)c(OC)c1OC [IMB-1018972] as the molecule, how does the TEAEs of flushing ([8]; 50 mg q12h fed) read?
Its TEAEs of flushing is “No TEAEs of flushing were reported”.

What about the “number of TEAEs of flushing (incidental and mild)” value ([8]; 150 mg q12h fed) of the same molecule?
Its value is 7.

What about the “subjects with TEAEs of flushing” value ([8]; 150 mg q12h fed (n=9)) of the same molecule?
The value was 6.

What about the “subjects reporting drug-related TEAEs” value ([8]; MAD part (6 of 18)) of the same molecule?
Its value is 33.3%.

What about the “subjects reporting TEAEs not related to the study drug” value ([8]; MAD part (11 of 18)) of the same molecule?
Its value is 61.1%.

What about the “severity of TEAEs” value ([8]; MAD part, all TEAEs) of the same molecule?
The value was “mild severity”.

What about the “total number of TEAEs” value ([8]; all IMB-1018972 subjects of MAD part) of the same molecule?
Its value is 35.

And the “effect of dosing under fed conditions on TEAEs” value ([3]; FE arm of SAD part, 150 mg)?
Its value is “appeared to attenuate the number and incidence of TEAEs”.

And the “TEAEs of flushing of mild severity” value ([3]; SAD part)?
The value was 1.

What about the “TEAEs of flushing of moderate severity” value ([3]; SAD part) of the same molecule?
The value was 5.

What about the “number of TEAEs of flushing (most common AEs)” value ([3]; SAD part) of the same molecule?
Its value is 6.

And the “severe TEAEs” value ([3]; SAD part)?
Its value is “No severe TEAEs were reported”.

What about the “subjects reporting drug-related TEAEs of flushing” value ([3]; SAD part (6 subjects)) of the same molecule?
Its value is 25%.

What about the “subjects reporting drug-related TEAEs” value ([3]; SAD part (7 of 24)) of the same molecule?
Its value is 29.2%.

What about the “serious adverse event leading to withdrawal” value ([3]; Subject 131, 150 mg fasted, FE arm Group A4, moderate, unlikely related) of the same molecule?
Its value is “influenza like illness”.

What about the “total number of TEAEs” value ([3]; all IMB-1018972 subjects of SAD part) of the same molecule?
The value was 45.

And the “drug-related TEAEs” value ([3]; following 50 mg and 150 mg (fasted only group))?
The value was “No drug-related TEAEs were reported”.

What about the “subjects who reported flushing” value ([3]; single dose 150 mg fasted, FE arm (n=6)) of the same molecule?
Its value is 2.

And the “maximum recommended starting dose (MRSD)” value ([7]; both, dog, in vivo, 28 days)?
The value was 648 mg/day.

What about the “clinical laboratory, vital signs, 12-lead ECG, telemetry, physical examination” value ([9]; single and multiple oral doses, IR formulation) of the same molecule?
Its value is “no findings of clinical relevance”.

What about the deaths ([9]; whole study) of the same molecule?
The deaths was “no deaths reported”.

And the “measurability of parent compound in plasma” value [10]?
Its value is “could be measured in only few plasma samples”.
